# Test results from patent US5314877A, “Water-soluble pentacyclic triterpene composition and method for producing the same” (Hokkaido Sugar Co., Ltd., priority 1990, dated 1994).
# Entries after “also recorded” stand apart in the source; their conditions may differ.
# Assay: Pharmacological function of triterpenes (earlier experiments and reports)
# Conditions: inventors' experiments, no data given
structure (smiles),measurement,value
"CC1(C)CC[C@]2(C(=O)O)CC[C@]3(C)C(=CC[C@@H]4[C@@]5(C)CC[C@H](O)C(C)(C)[C@@H]5CC[C@]43C)[C@@H]2C1 [oleanolic acid, Oleanolic acid]",Pharmacological function of oleanolic acid from sugar beet,antibiosis to a tumor and hepatitis; also recorded: cariostatic (insoluble glucanynthesis inhibition)
